Laboratory results from publication PMC8400955 (Pharmaceuticals, 2021).
Where two headings read alike, the source gives them in different places.

Assays:
CYP1A2 = target: T1, CYP1A2 (Homo sapiens, UniProt P05177); test: CYP phenotyping, recombinant CYP1A2
T1 sequence (P05177 1-516): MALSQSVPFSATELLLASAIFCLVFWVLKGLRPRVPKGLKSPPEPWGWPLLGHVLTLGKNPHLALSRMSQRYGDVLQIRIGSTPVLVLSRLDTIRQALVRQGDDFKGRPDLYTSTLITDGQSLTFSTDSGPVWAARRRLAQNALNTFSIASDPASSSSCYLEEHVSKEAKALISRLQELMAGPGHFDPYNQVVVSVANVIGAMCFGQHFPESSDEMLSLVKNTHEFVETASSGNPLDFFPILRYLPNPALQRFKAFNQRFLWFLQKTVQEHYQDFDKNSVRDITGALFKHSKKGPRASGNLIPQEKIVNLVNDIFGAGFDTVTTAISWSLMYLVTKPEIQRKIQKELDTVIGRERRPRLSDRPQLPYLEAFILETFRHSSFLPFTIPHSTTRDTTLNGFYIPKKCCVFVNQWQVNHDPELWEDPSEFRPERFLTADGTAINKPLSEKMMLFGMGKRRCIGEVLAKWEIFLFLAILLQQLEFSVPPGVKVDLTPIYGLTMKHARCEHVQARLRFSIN
Procedure: Bactosomes prepared from E. coli that heterologously expressed individual human CYP isoforms together with human CYP reductase were obtained from CYPEX LTD (Scotland, UK), and stored at −80 °C prior to use. […] Timepoints were taken at 0, 5, 10, 15, 20, and 30 min. Substrate disappearance was used to calculate intrinsic clearance (Clint) and half-life (t1/2). All incubations were performed in triplicate. […] The chemical inhibitors for CYP1A2, 2A6, 2B6, 2C8, 2C9, 2C19, 2D6, and 3A4 were furafylline, tranylcypromine, ticlopidine, montelukast, sulfaphenazole, N-3-benzylnirvanol, quinidine, and ketoconazole, respectively. Timepoints were collected at 0, 15, 30, 45, and 60 min, and the remaining percentage of the parent drug at each timepoint was calculated (the calculation details are available in the Supplementary Materials). All incubations were performed in triplicate.
The slope, k, was determined by linear regression of the natural logarithm of percent parent disappearance vs. incubation time curve. Peak areas for test article and internal standard were determined from extracted ion chromatograms. The peak area ratio was used to calculated for the results.
The half-life value (t1/2 rCYPi) was determined from the slope value:
Conversion of the t1/2 rCYPi (in min) into the intrinsic clearance (Clint rCYPi in μL/min/pmol) was done using the following equation: […]

[1] = Bidirectional permeability across Caco-2 cell monolayers; assay type: in vitro ADME; conditions: human; for recovery at 120 min, 1 μM: Caco-2, Caco-2, 1 μM; for recovery at 120 min, 5 μM: Caco-2, Caco-2, 5 μM; for recovery at 120 min, 15 μM: Caco-2, Caco-2, 15 μM
Procedure: (§1) The bidirectional permeability and absorption mechanism of ZB716 was evaluated across Caco-2 cell monolayers.
(§2) The apical-to-basolateral (A–B) and basolateral-to-apical (B–A) transport of ZB716 in HBSS (25 mM HEPES) with 1% BSA was measured across Caco-2 cell monolayers. […] All incubations were performed in triplicate, and the integrity of the cell monolayers was confirmed using the marker Lucifer yellow.
(§3) The slope, k, was determined by linear
(§4) using the following equation: […]
(§5) 1.4 Intestinal Mucosal Permeation of ZB716
(§6) Papp= VAArea х timeх ሾdrugሿreceiverሾdrugሿinitial,donor

Caco-2 cell monolayers = test: as above; assay type: in vitro ADME; conditions: Caco-2, according to the results at 15 μM
Procedure: as §1, §2, §3, §4, §5, §6

[2] = 7-day repeated-dose TK in dogs; assay type: in vivo; conditions: beagle, dog, plasma, po
Procedure: The TK of ZB716 was investigated following once-daily administration via oral gavage for 7 consecutive days. Beagle dogs (n = 1/sex) were orally administered ZB716 at dose levels of 100 and 200 mg/kg/day.
The TK of ZB716 was investigated following once-daily administration via oral gavage for 7 consecutive days. The Cmax and AUClast values of ZB716 increased with dose in a greater than dose-proportional manner. However, the exposure in the female given 100 mg/kg/day was higher than that in the female given 200 mg/kg/day on days 1 and 7 (Figure 3). During the study, females had higher exposure at 100 mg/kg/day, and males had higher exposure at 200 mg/kg/day.
Four-to-six-week-old Sprague Dawley rats (Crl: CD (SD)) (SPF/VAF) were purchased from Beijing Vital River Laboratory Animal Technology, Co. Ltd.). Six-month-old beagle dogs were purchased from Beijing Marshall Biotechnology Co. Ltd. Animals were quarantined/acclimated for 2–6 weeks prior to dose initiation. Both Sprague Dawley rats and beagle dogs were given oral administration of ZB716 (20% PG, 5% Solutol, and 75% of 40% HP-β-CD in water) at different dose levels. After treatment with the test articles, whole blood was collected from each study animal by puncture of the tail vein (0.4 mL of whole blood from rats) and/or the peripheral vein (0.6 mL of whole blood from dogs) into tubes containing K2EDTA at each timepoint: pre-dose, and 0.5, 1, 2, 4, 8, and 24 h post-dose. The plasma samples were divided into 2 aliquots (approximately equal in volume) and stored frozen at −75 ± 15 °C within 2 h of the collection until analysis at Pharmaron, China.
The stock solution of ZB716 (5.0 mg/mL) and ZB716-d6 (1 mg/mL) in ACN:DI Water = 1:1 was prepared and stored at −20 ± 5 °C. The desired serial concentrations of working reference analyte solutions were achieved by diluting a stock analyte solution with 50% acetonitrile (0.1% formic acid) in water solution. The bioanalytical LC–MS/MS method was validated for quantitative determination of ZB716 in Sprague Dawley rat plasma and beagle dog plasma, with acceptable selectivity, sensitivity, calibration curve, precision, and accuracy. This method is applicable for the determination of ZB716 in Sprague Dawley rat plasma and beagle dog plasma, with a lower limit of quantification of 20.0 ng/mL, and an upper limit of quantification of 10,000 ng/mL.
Five microliters of diluted supernatant was injected into the LC–MS/MS system (Shimadzu LC30AD HPLC system with a SynergiTM 4 μm Fusion-RP 80 Å (50 × 2 mm) column using gradient elution and a Triple Quad 5500 mass spectrometer) for quantitative analysis. The mobile phases used were 0.1% formic acid in deionized water and 0.1% formic acid in acetonitrile. The pharmacokinetic parameters T1/2 (the biological half-life), Cmax (maximal concentration), Tmax (time at which Cmax is observed), and AUC (area under the plasma concentration–time curve) were calculated from the plasma concentration versus time data using WinNonlin (Phoenix^TM, version 8.1, Mountain View, CA, USA). All PK studies were conducted by Pharmaron in Beijing, China.

[3] = female, 100 mg/kg/day, day 1, PO 100 mg/kg/day, F
[4] = female, 100 mg/kg/day, day 7, PO 100 mg/kg/day, F
[5] = female, 200 mg/kg/day, day 1, PO 200 mg/kg/day, F
[6] = female, 200 mg/kg/day, day 7, PO 200 mg/kg/day, F
[7] = male, 100 mg/kg/day, day 1, PO 100 mg/kg/day, M
[8] = male, 100 mg/kg/day, day 7, PO 100 mg/kg/day, M
[9] = male, 200 mg/kg/day, day 1, PO 200 mg/kg/day, M
[10] = male, 200 mg/kg/day, day 7, PO 200 mg/kg/day, M

For `C[C@]12CC[C@@H]3c4ccc(B(O)O)cc4C[C@@H](CCCCCCCCC[S+]([O-])CCCC(F)(F)C(F)(F)F)[C@H]3[C@@H]1CC[C@@H]2O` (stereo partly shown) [ZB716, fulvestrant-3-boronic acid], the half-life at 2 µM (CYP1A2; human) was 0.27 ± 0.0367 h, the Clint (CYP1A2; recombinant CYP1A2, 2 µM ZB716) was 0.866 ± 0.120 µL/min/pmol CYP and the recovery at 120 min, 1 μM ([1]; read-out: Recovery A to B) was under 66.6%. The recovery at 120 min, 1 μM ([1]; read-out: Recovery B to A) was 66.5 ± 0.7%, the recovery at 120 min, 5 μM ([1]; read-out: Recovery A to B) was under 67% and the recovery at 120 min, 5 μM ([1]; read-out: Recovery B to A) was 73.7 ± 1.5%. The recovery at 120 min, 15 μM ([1]; read-out: Recovery A to B) was 75.7 ± 2%, the recovery at 120 min, 15 μM ([1]; read-out: Recovery B to A) was 84.2 ± 4.8% and the Papp A→B at 120 min, 1 μM ([1]; Caco-2, 1 μM) was under 0.778 ×10⁻⁶ cm/s. For the same molecule, the Papp B→A at 120 min, 1 μM ([1]; Caco-2, 1 μM) was 0.747 ± 0.0316 ×10⁻⁶ cm/s, the efflux ratio at 120 min, 1 μM ([1]; Caco-2, 1 μM) was over 0.935 and the Papp A→B at 120 min, 5 μM ([1]; Caco-2, 5 μM) was under 0.159 ×10⁻⁶ cm/s. It also gave a Papp B→A at 120 min, 5 μM ([1]; Caco-2, 5 μM) of 0.82 ± 0.127 ×10⁻⁶ cm/s, an efflux ratio at 120 min, 5 μM ([1]; Caco-2, 5 μM) of over 4.55 and a Papp A→B at 120 min, 15 μM ([1]; Caco-2, 15 μM) of 0.188 ± 0.021 ×10⁻⁶ cm/s. For the same molecule, the Papp B→A at 120 min, 15 μM ([1]; Caco-2, 15 μM) was 0.534 ± 0.028 ×10⁻⁶ cm/s, the efflux ratio at 120 min, 15 μM ([1]; Caco-2, 15 μM) was 2.87 ± 0.49 and the permeability class (Caco-2 cell monolayers) was “low permeability”. The Tmax at 7 days ([2]; both sexes, 200 mg/kg/day, 7-day repeat oral administration, 100 and 200 mg/kg/day, mostly) was 0.5 to 2 h, the AUC(0-t) [2, 3] was 55600 ng·h/mL and the Cmax [2, 3] was 7210 ng/mL. For the same molecule, the Tmax [2, 3] was 2 h, the AUC(0-t) [2, 4] was 81100 ng·h/mL and the Cmax [2, 4] was 12300 ng/mL. For the same molecule, the Tmax [2, 4] was 4 h, the AUC(0-t) [2, 5] was 9780 ng·h/mL and the Cmax [2, 5] was 1740 ng/mL. For the same molecule, the Tmax [2, 5] was 1 h, the AUC(0-t) [2, 6] was 46700 ng·h/mL and the Cmax [2, 6] was 8420 ng/mL. For the same molecule, the Tmax [2, 6] was 2 h, the AUC(0-t) [2, 7] was 5070 ng·h/mL and the Cmax [2, 7] was 1350 ng/mL. It also gave a Tmax [2, 7] of 1 h, an AUC(0-t) [2, 8] of 17800 ng·h/mL and a Cmax [2, 8] of 3430 ng/mL. The Tmax [2, 8] was 1 h, the AUC(0-t) [2, 9] was 52200 ng·h/mL and the Cmax [2, 9] was 8430 ng/mL. The Tmax [2, 9] was 2 h, the AUC(0-t) [2, 10] was 103000 ng·h/mL and the Cmax [2, 10] was 18300 ng/mL. The Tmax [2, 10] was 2 h.
